Source: patent publication US20180153859A1, “METHODS OF TREATING OR PREVENTING COGNITIVE IMPAIRMENT USING INDANE ACETIC ACID DERIVATIVES BASED ON APOE4 GENOTYPE” (T3D Therapeutics, Inc., priority 2016, published 2018)

Tested on: mild to moderate severity Alzheimer's patients
Experiment: ADAS-cog11 cognitive test in Alzheimer's patients stratified by ApoE4 genotype (trial NCT02560753)
Format: in vivo, human
Conditions: for cognitive improvement (ADAS-cog11 score change): D1-D14 and D1-D21
Method: Table 8c compares the average ADAS-cog11 score of all subjects, treated at all doses of T3D-959 in trial NCT02560753 (ClinicalTrials.gov), stratified by ApoE4 genotype and compares those scores with the average score of the group of subjects dosed at 3 mg, 10 mg, and 30 mg/d. ADAS-cog11 score change from day 1 (pre-dosing) to day 14 (D1-D14, end of treatment) and from day 1 to day 21 (D1-D21, followup) are shown.
Shown in this table are ADAS-cog11 cognitive test score changes from before dosing on day 1 of treatment (D1) to end of drug treatment on Day 14 (D14) and at follow-up 7 days post-dosing on Day 21 (D21). Drug treatment of mild to moderate severity Alzheimer's patients (MMSE=14-26) with T3D-959 was for 14 days q.d. at 3 mg, 10 mg, 30 mg or 90 mg (n=number of subjects evaluable at each dose). The ADAS-cog11 test score changes at each dose were stratified by ApoE4 genotype [E4=one or two ApoE4 alleles, Non-E4=no ApoE4 alleles].
ADAS-cog score change from day 1 to day 14 (D1-D14) and from day 1 to day 21 (D1-D21) are shown.
Adult human subjects who were tested for the presence of the ApoE4 gene (one or two E4 alleles) and had Alzheimer's disease were tested with the compound of the invention ((1S)-5-{5-ethyl-2-(4-methoxyphenyl)-1,3-oxazol-4-yl]ethoxy}-2,3-dihydro-1H-inden-1-yl) acetic acid, sodium salt. Subjects either lacked ApoE4 alleles (non-E4) or had one or two ApoE4 alleles (E4).

Row | SMILES | cognitive improvement (ADAS-cog11 score change) (ApoE4 carriers (one or two ApoE4 alleles), 30 mg and 90 mg/d q.d. for 14 days) | cognitive improvement (ADAS-cog11 score change) (ApoE4 non-carriers, 3 mg, 10 mg and 30 mg/d q.d. for 14 days, acetic acid, sodium salt) | most effective / required daily dose for cognitive improvement (AD subjects with one or two ApoE4 alleles) | most effective daily dose for cognitive improvement (ApoE4 non-carrier AD subjects) | cognitive improvement (ADAS-cog11 score change) (ApoE4 non-carriers, 3 mg, 10 mg and 30 mg/d q.d. for 14 days)
1 | CCc1oc(-c2ccc(OC)cc2)nc1CCOc1ccc2c(c1)CC[C@H]2CC(=O)[O-].[Na+] [Example T3D-959] | improvement | greater cognitive improvement | – | – | –
2 | CCc1oc(-c2ccc(OC)cc2)nc1CCOc1ccc2c(c1)CC[C@H]2CC(=O)[O-].[Na+] | – | – | ≥ 30 mg | 3 to 30 mg qd | showed improvement in cognition
